# Data: patent publication US8362070B2, “Application of puerarin in the preparation of P2X3 mediated drugs for pain/nervous system diseases” (Nanchang University, priority 2009, dated 2013)
# How the values were obtained:
# P2X3 receptor = target: T1, P2X3 receptor (Rattus norvegicus, UniProt P49654); assay: Whole-cell patch clamp of ATP or α,β-meATP activated current in DRG neurons of CCI rats; format: cell-based; conditions: for DRG neurons sensitive to exogenous ATP: ATP 1-1000 μmol/L; for α,β-meATP-activated electric current in DRG neurons: α,β-meATP 10 μmol/L
# T1 construct: The method for neuron sample isolated from DRG of rats was briefly described as below; endogenous in cells; host or cells: acutely dissociated L4/L5 DRG neurons of SD rats
# T1 sequence (P49654 1-397): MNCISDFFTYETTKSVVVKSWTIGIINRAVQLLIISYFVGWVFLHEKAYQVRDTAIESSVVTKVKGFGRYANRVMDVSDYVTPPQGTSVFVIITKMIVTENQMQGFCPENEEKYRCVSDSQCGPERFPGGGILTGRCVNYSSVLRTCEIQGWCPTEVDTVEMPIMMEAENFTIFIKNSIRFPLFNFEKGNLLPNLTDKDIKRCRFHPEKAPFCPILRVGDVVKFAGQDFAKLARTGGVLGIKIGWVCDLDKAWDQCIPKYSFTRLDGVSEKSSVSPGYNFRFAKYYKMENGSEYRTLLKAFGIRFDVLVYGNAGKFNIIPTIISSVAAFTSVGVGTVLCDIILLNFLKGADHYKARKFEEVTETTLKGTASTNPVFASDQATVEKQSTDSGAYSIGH
# Description: The method for neuron sample isolated from DRG of rats was briefly described as below: the rats were knocked down and their skin in the back was cut open rapidly after decollation. The ribs that were connected to the spinal column at both sides were cut apart and the thoracolumbar spine was taken out and cut in half through the middle of the spine. The samples were kept in O2 saturated DMEM solution (Dubecco's Modified Eagle's medium), pH 7.40, and the osmotic pressure of this solution was 340 mOsm/kg. The sections L4 and L5 of nerve ganglion and connected nerve roots (dorsal nerve roots and ventral roots) as well as the spinal nerves were taken out inside the open vertebral canal, the connected nerves and adjacent connective tissue capsule were carefully removed by using fine corneal scissors and hairspring tweezer under an anatomical microscope, and the cleaned DRG should be cut into small pieces as far as possible and transferred to a culture flask, trypsin (type III, sigma) 0.5 g/L and collagenase (type IA, sigma) 1.0 g/L was then added, and the culture flask was incubated in a constant temperature shaking water bath (35 °C, 80 times/min) for 20-30 minutes, then proper amount of Soya beam trypsin inhibitor (type […]-s, Sigma) was added to stop the enzymatic digestion. The DRG cells after the above mentioned enzymatic and mechanical isolation were transferred to 35 mm culture dishes, and then they were kept still on the object stage of an inverted microscope for solution change for 30 minutes, subsequently the whole-cell patch clamp technique was utilized to record the effects of puerarin on ATP or α,β-meATP activated electric current. • (1) Carefully examining the connection and original setting of equipments in the experimental system. • (2) Turning on the power switch. • (3) Electrode installation: connecting the reference electrode, filling the glass electrode and then installing it on the electrode clamp holder. Notice: the electrode should not be over-filled; contacting the shielding can with hands before installing the electrodes in order to release the static electricity on the body. • (4) Phase boundary potential compensation and electrode resistance determination: filling solution in the microelectrode under the “searching” mode, adjusting the phase boundary potential compensation and measuring electrode resistance according to the responsive amplitude of electric current that was induced by pulsed voltage square wave. • (5) Cell sealing: adjusting the micro-operator to get the tip of the microelectrode close to the surface of the cell and a negative pressure is produced in the micro-electrode and thus the Giga-Ohm seal was formed. • (6) Rapid electric capacity compensation: adjusting the rapid electric capacity compensation and making the output signal free of ingredients of rapid electric capacitive current. • (7) Absorbing the cell membrane until it was disrupted: the working mode was switched to “forcipressure”. The membrane was absorbed until it was disrupted after the high resistance sealing was formed between the electrode and the cell (1-10 GΩ). The holding potential (H.P) was kept at −60 mV, and low pass membrane current was used (1 kHz, −3 dB). • (8) Slow capacitive compensation: adjusting the slow capacitive compensation and making the output signal free of ingredients of slow electric capacitive current. Tandem resistance compensation: adjusting the tandem resistance compensation until no shock was produced. The equipment for record of patch clamp was CEZ-2400 type patch clamp amplifier (Nihon-Kohden, Japan). The membrane was further absorbed until it was disrupted after the high resistance formed between the electrode and the cell membrane (1˜10 GΩ), and the capacitance and the tandem resistance compensation were adjusted. The holding potential (HP) was kept at −60 mV, low pass membrane current was used (1 kHz, −3 dB). The experimental results were traced by using the two-way recorder (LMS-2B, Chengdu). […]
# [1] = system: rats that suffer from superficial second degree foot burn; assay: Thermal hyperalgesia (thermal withdrawal latency) in rats with foot burn; format: in vivo, rat; conditions: for thermal withdrawal latency (TWL) in comparison to group III (burn) / thermal withdrawal latency (TWL) after 144 hours: superficial second degree foot burn + drug; for thermal withdrawal latency (TWL) in comparison to group III (burn): 24 hours after burn, p<0.01
# Description: Male SD rats, 220-250 g, 60 rats were included, which were provided by the Department of Experimental Animals from the Medical College of Nanchang University, and the animals were divided into different groups at random. Group I was the group of sham burn in skin of feet; group II was the group of puerarin injection+first degree or superficial second degree burn in skin of feet; group III was the group of physiological saline+first degree or superficial second degree burn in skin of feet; group IV was the group of sham burn in skin of back; group V was the group of puerarin injection+first degree or superficial second degree burn in skin of back; group VI was the group of physiological saline+first degree or superficial second degree burn in skin of back. Puerarin injection was dissolved in physiological saline and the concentration was 50 mg/mL. vena caudalis injection of 4 mL/kg physiological saline was carried out for the rats in group III and […] 0.5 h before burn, and the injection was carried out once a day until the termination of the test; […], and the injection was carried out once a day until the termination of the test; skin of feet or back of the rats from group I and group IV (the sham burn group) were immersed in warm water of 37° C. for 8 seconds.
# After the rats were anesthetized by ether, their right posterior feet were immersed in hot water of 70° C. for 5 seconds or 8 seconds, then they were raised in separate cages after burn. The mechanical withdrawal threshold and the thermal withdrawal threshold in their right posterior feet were measured respectively before burn (Oh) and 1, 24, 48, 72, 96, 120, 144 hours after burn (the room temperature was maintained at 22±0.5° C.).
# The organic glass box was placed on a glass plate of 3 mm thick and BME-410C type automatic thermalgia stimulator was used to irradiate the footplates of rats. The time for the appearance of leg withdrawal after the irradiation on footplates of rats by using the thermal radiation stimulator was considered as the thermal withdrawal latency (TWL). The time for cutting off was 25 seconds in order to prevent burn on tissues.
# The organic glass box was placed on a glass plate of 3 mm thick and BME-410C type automatic thermalgia stimulator (Institute of Biomedical Engineering, Chinese Academy of Medical Sciences) was used to irrdiate the footplates of rats. The time for the appearance of leg withdrawal after the irradiation on footplates of rats by using the thermal radiation stimulator was considered as the thermal withdrawal latency. The time for cutting off was 30 seconds in order to prevent burn on tissues.
"ATP-activated electric current in DRG neurons in comparison to CCI group (P2X3 receptor; CCI rats + Indocin, p<0.05)",DRG neurons sensitive to exogenous ATP (P2X3 receptor; CCI rats + drug),"α,β-meATP-activated electric current in DRG neurons (P2X3 receptor; CCI rats + drug)","ATP-activated electric current in DRG neurons in comparison to the idomethine treatment group (P2X3 receptor; CCI rats + puerarin, p<0.05)","ATP-activated electric current in DRG neurons, difference from groups I, II and V (P2X3 receptor; CCI rats + puerarin, p>0.05)","DRG neurons sensitive to exogenous ATP (P2X3 receptor; puerarin alone, no CCI)","α,β-meATP-activated electric current in DRG neurons (P2X3 receptor; puerarin alone, no CCI)",Compound,thermal withdrawal latency (TWL) in comparison to group III (burn) [1],thermal withdrawal latency (TWL) after 144 hours ([1]; p>0.05),"thermal withdrawal latency, comparison among sham, puerarin alone and control ([1]; puerarin alone i.p., no burn, p>0.05)"
decreased,89.7%,extremely low inward current,,,,,"COc1ccc2c(c1)c(CC(=O)O)c(C)n2C(=O)c1ccc(Cl)cc1 [Indocin, Indometacin]",significantly increased,almost recovered to normal level,
,87.5%,extremely low inward current,lower,not significant,89.2%,extremely low inward current,O=c1c(-c2ccc(O)cc2)coc2c([C@@H]3O[C@H](CO)[C@@H](O)[C@H](O)[C@H]3O)c(O)ccc12 [puerarin],significantly increased,almost recovered to normal level,no significant difference
